In ChEMBL document CHEMBL3045574, “Safening Effects of 1, 8-Naphthalic Anhydride in Corn Plants Treated with Bensulfuron-methyl and Imazaquin” (J Pestic Sci, 1997) one finds Activity, Ratio and I50 data, which are given here for three compounds.

Assay [1] deals with Zea mays. As to the kind of experiment: Decrease of imazaquin-induced increase of pyruvate content in Zea mays (maize) assessed per gram of fresh weight at 0.2 % w/w after 10 days. Format: functional, organism-based.
Assay [2] relates to Zea mays. As to the kind of experiment: Effect on pyruvate content in Zea mays (maize) shoot assessed per gram of fresh weight at 0.2 % w/w after 10 days (reference value: 18.4 umol). Format: functional.
Assay [3] deals with Zea mays. Put plainly: Effect on pyruvate content in Zea mays (maize) embryos assessed per gram of fresh weight at 0.2 % w/w after 10 days (reference value: 8.5 umol). Format: functional.
Assay [4] concerns Zea mays. Put plainly: Increase of acetolactate synthase activity in Zea mays (maize) at 0.2 % w/w after 15 min relative to control. Format: functional.
The subject of assay [5] is Zea mays. As to the kind of experiment: Effect on pyruvate content in Zea mays (maize) roots assessed per gram of fresh weight at 0.2 % w/w after 10 days (reference value: 13.3 umol). Format: functional.
Assay [6] has as its system Zea mays. Put plainly: Increase of acetyl CoA carboxylase activity in Zea mays (maize) at 0.2 % w/w after 15 min relative to control. Format: functional.
Assay [7] relates to Zea mays. As to the kind of experiment: Effect on pyruvate content in Zea mays (maize) endosperms assessed per gram of fresh weight at 0.2 % w/w after 10 days (reference value: 11.4 umol). Format: functional.
Assay [8] concerns Zea mays. Put plainly: Decrease of bensulfuron-methyl-induced increase of pyruvate content in Zea mays (maize) assessed per gram of fresh weight at 0.2 % w/w after 10 days. Format: functional, organism-based.
Assay [9] has as its system Zea mays. Put plainly: Protection against imazaquin-induced growth inhibition of Zea mays (maize) assessed as safening index at 0.05 to 0.4 % w/w treated 1 to 14 days before imazaquin challenge measured after 3 weeks relative to untreated control. Format: functional.
In assay [10] the test system is Zea mays. As to the kind of experiment: Increase of acetolactate synthase activity in Zea mays (maize) shoot. Format: functional.
Assay [11] relates to Zea mays. Put plainly: Protection against bensulfuron-methyl-induced growth inhibition of Zea mays (maize) assessed as safening index at 0.05 to 0.4 % w/w treated 1 to 14 days before bensulfuron-methyl challenge measured after 3 weeks relative to untreated control. Format: functional.
Assay [12] has as its system Zea mays. As to the kind of experiment: Increase of acetolactate synthase activity in Zea mays (maize) root. Format: functional.
Assay [13] concerns the target T1, Acetolactate synthase (Zea mays, UniProt Q41768+Q41769).
T1 sequence (Q41768 whole entry): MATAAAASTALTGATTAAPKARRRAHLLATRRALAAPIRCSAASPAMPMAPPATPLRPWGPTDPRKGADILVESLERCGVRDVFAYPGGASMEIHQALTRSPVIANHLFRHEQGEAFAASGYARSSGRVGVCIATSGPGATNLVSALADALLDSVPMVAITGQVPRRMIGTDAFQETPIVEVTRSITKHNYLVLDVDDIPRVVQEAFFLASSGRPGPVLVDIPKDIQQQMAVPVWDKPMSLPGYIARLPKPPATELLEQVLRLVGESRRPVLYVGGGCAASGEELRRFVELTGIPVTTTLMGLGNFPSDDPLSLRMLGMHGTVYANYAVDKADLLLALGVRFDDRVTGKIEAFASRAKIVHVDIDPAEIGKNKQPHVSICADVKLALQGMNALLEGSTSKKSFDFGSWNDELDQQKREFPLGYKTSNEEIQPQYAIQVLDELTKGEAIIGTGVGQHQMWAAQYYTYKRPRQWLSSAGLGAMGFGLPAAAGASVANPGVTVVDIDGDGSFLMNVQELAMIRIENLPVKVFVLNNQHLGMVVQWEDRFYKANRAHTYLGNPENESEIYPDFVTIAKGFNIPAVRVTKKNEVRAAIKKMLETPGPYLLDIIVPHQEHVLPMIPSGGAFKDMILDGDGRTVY
T1 sequence (Q41769 whole entry): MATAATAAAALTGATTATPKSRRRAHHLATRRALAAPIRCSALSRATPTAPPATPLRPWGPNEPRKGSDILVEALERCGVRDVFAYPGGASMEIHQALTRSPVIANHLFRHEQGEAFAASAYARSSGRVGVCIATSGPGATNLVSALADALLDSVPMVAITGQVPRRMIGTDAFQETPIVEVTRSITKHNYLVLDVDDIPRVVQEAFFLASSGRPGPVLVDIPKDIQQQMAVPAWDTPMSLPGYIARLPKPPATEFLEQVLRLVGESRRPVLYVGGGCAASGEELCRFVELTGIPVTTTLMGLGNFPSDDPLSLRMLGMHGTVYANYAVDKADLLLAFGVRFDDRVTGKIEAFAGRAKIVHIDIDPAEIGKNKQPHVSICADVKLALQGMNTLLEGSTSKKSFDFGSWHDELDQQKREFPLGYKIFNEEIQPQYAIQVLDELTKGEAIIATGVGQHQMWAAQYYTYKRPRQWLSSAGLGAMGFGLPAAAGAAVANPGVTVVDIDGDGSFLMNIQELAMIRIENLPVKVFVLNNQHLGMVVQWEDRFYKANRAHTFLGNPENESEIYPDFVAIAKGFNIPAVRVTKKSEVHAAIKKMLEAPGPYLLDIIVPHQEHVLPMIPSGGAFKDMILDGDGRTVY
Put plainly: Inhibition of Zea mays (maize) acetolactate synthase. Format: protein assay.

Active and inactive are the calls of the source. The rule behind the calls is not given here.

Take `O=C1OC(=O)c2cccc3cccc1c23` [1,8-NAPHTHALIC ANHYDRIDE]: the outcome in [1] and in [8] was Active. Moreover, the Activity came to 16.2 µmol in assay [2]; 8 µmol in assay [3]; 31.9% in assay [4]; 13 µmol in assay [5]; 216% in assay [6]; 11.2 µmol in [7]. Moreover, the Activity in assay [10] is recorded as 24%; in [12], 30%. Besides, the Ratio stood at 5.1 in assay [9] and 303 in assay [11].
For `CC(C)C1(C)N=C(c2nc3ccccc3cc2C(=O)O)NC1=O` (centres undefined) [IMAZAQUIN], in [13], the I50 was 11.8 µM.
For `COC(=O)c1ccccc1CS(=O)(=O)NC(=O)Nc1nc(OC)cc(OC)n1` [BENSULFURON METHYL], in [13], the I50 stood at 0.2 µM.
